pIC50: −log10 of the molar value. Values after ≈ are worked out from the molar mass of the structure shown. Read-outs that look alike come from different tables or passages of the source.
Experiments:
Escherichia coli = experiment: In vitro antimicrobial screening, tube dilution method; assay type: cell-based; conditions: E. coli, Gram −ve, nutrient broth, 37 ± 1 °C, 24 h, read-out: Minimum inhibitory concentration
Protocol: (§1) The in vitro antimicrobial screening of the synthesized 1,2,4-triazole derivatives (T1–T20) in μM was determined against Gram-positive Bacillus subtilis, […], Gram-negative Escherichia coli bacterium and fungal strains Candida albicans and Aspergillus niger by tube dilution method using ciprofloxacin, amoxycillin (antibacterial) and fluconazole (antifungal) as reference drugs. DMSO was used to dissolve the reference and sample derivatives (T1–T20). Dilutions were prepared in nutrient broth (I.P.) for bacterial (incubated at 37 ± 1 °C for 24 h) and Sabouraud dextrose broth (I.P.) for fungal species (37 ± 1 °C for 48 h for C. albicans) and (25 ± 1 °C for 7 days for A. niger) (Table 3, Figs. 4 and 5).

Pseudomonas aeruginosa = experiment: as above; assay type: cell-based; conditions: P. aeruginosa, Gram −ve, nutrient broth, 37 ± 1 °C, 24 h, read-out: Minimum inhibitory concentration
Protocol: as §1

Bacillus subtilis = experiment: as above; assay type: cell-based; conditions: B. substilis, Gram +ve, nutrient broth, 37 ± 1 °C, 24 h, read-out: Minimum inhibitory concentration
Protocol: as §1

[1] = test system: Gram-positive (B. subtilis), Gram-negative (P. aeruginosa and E. coli) bacterial strains; experiment: Tube dilution method, MIC of antibacterial standards quoted without strain; assay type: cell-based; conditions: antibacterial standard, strain not given
Jack Bean Urease = Jack Bean Urease (Canavalia ensiformis, UniProt P07374); experiment: biochemical
Protocol: Urease inhibitory potential for each synthesisized compound (T1–T20) was evaluated using Jack Bean Urease by Indophenol method (Table 5, Figs. 9, 10, 11). 250 µl of jack bean urease (4U) was mixed with 250 µl of different synthesized test compounds and standard of different concentrations [dissolved in DMSO/H2O mixture (1:1 v/v)]. The mixture was pre-incubated for 1 h at 37 °C in test tubes. 2 ml of 100 mM phosphate buffer (pH 6.8) containing 500 mM urea and 0.002% phenol red as an indicator were added in sample test tubes after pre incubation and again incubated at room temperature. Absorbance of reaction mixture was recorded by ELISA at 570 nm. Ammonium carbonate increased the pH of phosphate buffer from 6.8 to 7.7 which was produced from urea by urease enzyme and the end peak was measured by the colour of phenol red indicator [16].
The percentage inhibition of urease enzyme was calculated by using following formula: I%=Acontrol-Asample/Acontrol×100,
where Acontrol is the absorbance of the control; Asample is the absorbance of the test compound.

[2] = DPPH free radical scavenging activity; conditions: for IC50: DPPH antioxidant; for % inhibition: DPPH
Protocol: In the DPPH free radical scavenging activity, compounds (T1–T20) were evaluated for their free radical scavenging activity with ascorbic acid as standard compound. The scavenging effect increased with the increasing concentrations of sample compounds. DPPH is relatively stable nitrogen centered free radical that easily accepts an electron or hydrogen radical to become a stable diamagnetic molecule. DPPH radicals react with suitable reducing agents as a result of which the electrons become paired off forming the corresponding hydrazine. The solution therefore loses colour stoichometrically depending on the number of electrons taken up. […] The sample solutions were incubated for 30 min at room temperature in dark place and after then absorbance was recorded against the blank solution at 517 nm. The relative percent of DPPH scavenging activity was calculated according to the following equation: I%=Acontrol-Asample/Acontrol×100,
where Acontrol is the absorbance of the control, Asample is the absorbance of the test compound.

Aspergillus niger = experiment: In vitro antifungal screening, tube dilution method; assay type: cell-based; conditions: Aspergillus niger, 168 h; A. niger; Sabouraud dextrose broth, 25 ± 1 °C, 7 days; read-out: Minimum inhibitory concentration
Protocol: as §1

Candida albicans = experiment: as above; assay type: cell-based; conditions: Candida albicans; C. albican; Sabouraud dextrose broth, 37 ± 1 °C, 48 h; read-out: Minimum inhibitory concentration
Protocol: as §1

[3] = test system: HCT116 (human colon cancer cells); experiment: Anticancer evaluation, SRB assay; assay type: cell-based; conditions: Homo sapiens, HCT-116; HCT116, 72 h, SRB; mean of at least triplicates
Protocol: HCT116 (human colon cancer cells) were seeded at 2500 cells/well (96 well plate), allowed to attach overnight, exposed to the respective compounds for 72 h and subjected to SRB assay (570 nm). Data represent mean IC50 of at least triplicates. The compounds were all dissolved in DMSO as stock of 100 mg/ml. […] The highest concentration of each compound tested (100 μg/ml) contained only 0.1% DMSO.

Sequence of Jack Bean Urease (P07374 whole entry, looked up): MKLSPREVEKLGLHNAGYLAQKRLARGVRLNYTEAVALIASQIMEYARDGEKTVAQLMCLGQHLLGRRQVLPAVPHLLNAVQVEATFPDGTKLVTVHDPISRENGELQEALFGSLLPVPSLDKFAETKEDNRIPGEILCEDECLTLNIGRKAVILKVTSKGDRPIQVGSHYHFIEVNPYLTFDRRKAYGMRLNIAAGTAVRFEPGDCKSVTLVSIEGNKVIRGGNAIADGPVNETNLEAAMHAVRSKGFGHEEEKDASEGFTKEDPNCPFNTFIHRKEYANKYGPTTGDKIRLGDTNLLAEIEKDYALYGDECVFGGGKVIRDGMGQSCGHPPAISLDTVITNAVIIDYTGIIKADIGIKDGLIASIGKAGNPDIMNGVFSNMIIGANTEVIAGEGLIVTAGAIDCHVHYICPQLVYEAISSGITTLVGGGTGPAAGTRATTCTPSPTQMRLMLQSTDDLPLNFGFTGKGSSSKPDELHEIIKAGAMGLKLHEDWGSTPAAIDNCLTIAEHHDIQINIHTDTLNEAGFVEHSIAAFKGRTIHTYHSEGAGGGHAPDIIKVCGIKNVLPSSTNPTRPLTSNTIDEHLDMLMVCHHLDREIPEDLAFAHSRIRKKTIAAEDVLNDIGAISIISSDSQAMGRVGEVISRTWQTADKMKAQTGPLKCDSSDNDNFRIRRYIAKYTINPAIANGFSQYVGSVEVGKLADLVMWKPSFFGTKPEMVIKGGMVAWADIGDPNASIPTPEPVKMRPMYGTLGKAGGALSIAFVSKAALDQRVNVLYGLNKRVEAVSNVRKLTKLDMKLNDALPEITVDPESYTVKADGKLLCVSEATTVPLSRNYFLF

| SMILES | MIC (Escherichia coli; Escherichia coli) | MIC (Pseudomonas aeruginosa; Pseudomonas aeruginosa) | MIC (Bacillus subtilis; Bacillus subtilis) | pIC50 (Jack Bean Urease) | inhibition at 25 µg/mL (Jack Bean Urease) | inhibition at 50 µg/mL (Jack Bean Urease) | inhibition at 75 µg/mL (Jack Bean Urease) | inhibition at 100 µg/mL (Jack Bean Urease) | melting point | IC50 [2] | % inhibition ([2]; 25 µg/ml) | % inhibition ([2]; 50 µg/ml) | % inhibition ([2]; 75 µg/ml) | % inhibition ([2]; 100 µg/ml) | MIC (Aspergillus niger) | MIC (Candida albicans) | pIC50 [3] | other results |
| --- | --- | --- | --- | --- | --- | --- | --- | --- | --- | --- | --- | --- | --- | --- | --- | --- | --- | --- |
| CC1(C)S[C@@H]2[C@H](NC(=O)[C@H](N)c3ccc(O)cc3)C(=O)N2[C@H]1C(=O)O [Amoxicillin, reference compound] | 17.1 µM (≈ 6.25 µg/mL) | 17.1 µM (≈ 6.25 µg/mL) | 17.1 µM (≈ 6.25 µg/mL) | – | – | – | – | – | – | – | – | – | – | – | – | – | – | MIC [1]: 17.1 µM |
| O=C(O)c1cn(C2CC2)c2cc(N3CCNCC3)c(F)cc2c1=O [Ciprofloxacin, reference compound] | 37.7 µM (≈ 12.5 µg/mL) | 18 µM (≈ 5.96 µg/mL) | 18 µM (≈ 5.96 µg/mL) | – | – | – | – | – | – | – | – | – | – | – | – | – | – | MIC (Pseudomonas aeruginosa): 18.0 µM (≈ 5.96 µg/mL); MIC (Bacillus subtilis): 18.0 µM (≈ 5.96 µg/mL); MIC [1]: 18.1 µM |
| CCCCCCCCCCCCCCCc1nnc(S)n1N=Cc1ccc(O)cc1 [Compound T8] | 58 µM (≈ 25 µg/mL) | 58 µM (≈ 25 µg/mL) | 116 µM (≈ 50 µg/mL) | 3.88 | 22.4% | 39.6% | 68.6% | 92.7% | 192 to 195 °C | 36.12 µg/mL (≈ 83.9 µM) | 43.91% | 58.67% | 67.54% | 82.57% | 232 µM (≈ 100 µg/mL) | 116 µM (≈ 50 µg/mL) | < 3.63 | MIC (Escherichia coli): 58.0 µM (≈ 25 µg/mL); MIC (Pseudomonas aeruginosa): 58.0 µM (≈ 25 µg/mL) |
| CCCCCCCCCCCCCCCc1nnc(S)n1N=Cc1ccc(N(C)C)cc1 [Compound T9] | 54.6 µM (≈ 25 µg/mL) | 27.3 µM (≈ 12.5 µg/mL) | 54.6 µM (≈ 25 µg/mL) | – | 33.5% | 53.7% | 70.5% | 92.7% | 198 to 201 °C | 35.42 µg/mL (≈ 77.4 µM) | 40.56% | 60.67% | 83.61% | 92.16% | 218 µM (≈ 100 µg/mL) | 109 µM (≈ 50 µg/mL) | < 3.66 | – |
| CCCCCCCCCCCCCCCc1nnc(S)n1N=Cc1cccc(Cl)c1 [Compound T10] | 111 µM (≈ 50 µg/mL) | 55.6 µM (≈ 25 µg/mL) | 55.6 µM (≈ 25 µg/mL) | 3.94 | 27.9% | 46.9% | 70.9% | 89.8% | 205 to 208 °C | 43.57 µg/mL (≈ 97 µM) | 45.56% | 51.56% | 57.57% | 62.67% | 55.6 µM (≈ 25 µg/mL) | 223 µM (≈ 100 µg/mL) | 3.76 | – |
| CCCCCCCCCCCCCCCc1nnc(S)n1N=Cc1ccc(Cl)cc1 [Compound T11] | 111 µM (≈ 50 µg/mL) | 111 µM (≈ 50 µg/mL) | 55.6 µM (≈ 25 µg/mL) | 3.92 | 25% | 42.5% | 68.9% | 92.7% | 202 to 205 °C | 45.36 µg/mL (≈ 101 µM) | 35.78% | 52.89% | 70.89% | 89.9% | 111 µM (≈ 50 µg/mL) | 27.8 µM (≈ 12.5 µg/mL) | < 3.65 | – |
| CCCCCCCCCCCCCCCc1nnc(S)n1N=Cc1ccc(Cl)cc1Cl [Compound T12] | 103 µM (≈ 50 µg/mL) | 51.7 µM (≈ 25 µg/mL) | 103 µM (≈ 50 µg/mL) | 3.92 | 43.6% | 46.6% | 52.6% | 61.6% | 211 to 214 °C | 39.56 µg/mL (≈ 81.8 µM) | 44.45% | 51.45% | 68.56% | 70.61% | 103 µM (≈ 50 µg/mL) | 207 µM (≈ 100 µg/mL) | < 3.68 | – |
| CCCCCCCCCCCCCCCc1nnc(S)n1N=Cc1cccc(Br)c1 [Compound T13] | 203 µM (≈ 100 µg/mL) | 203 µM (≈ 100 µg/mL) | 101 µM (≈ 50 µg/mL) | 3.99 | 26.6% | 48.8% | 74% | 98.9% | 197 to 200 °C | 36.40 µg/mL (≈ 73.8 µM) | 43.46% | 57.67% | 73.76% | 89.56% | 203 µM (≈ 100 µg/mL) | 101 µM (≈ 50 µg/mL) | < 3.69 | – |
| CCCCCCCCCCCCCCCc1nnc(S)n1N=Cc1ccc(Br)cc1 [Compound T14] | 101 µM (≈ 50 µg/mL) | 101 µM (≈ 50 µg/mL) | 50.6 µM (≈ 25 µg/mL) | 3.87 | 41.7% | 46.2% | 50.5% | 57.8% | 193 to 196 °C | 37.52 µg/mL (≈ 76 µM) | 37.56% | 60.68% | 85.79% | 95.61% | 101 µM (≈ 50 µg/mL) | 203 µM (≈ 100 µg/mL) | 3.89 | – |
| CCCCCCCCCCCCCCCc1nnc(S)n1N=Cc1ccccc1[N+](=O)[O-] [Compound T15] | 218 µM (≈ 100 µg/mL) | 109 µM (≈ 50 µg/mL) | 54.3 µM (≈ 25 µg/mL) | 3.88 | 29% | 37.1% | 61.8% | 73.1% | 195 to 198 °C | 47.99 µg/mL (≈ 104 µM) | 38.56% | 50.64% | 62.16% | 80.56% | 54.3 µM (≈ 25 µg/mL) | 218 µM (≈ 100 µg/mL) | < 3.66 | – |
| CCCCCCCCCCCCCCCc1nnc(S)n1N=Cc1cccc([N+](=O)[O-])c1 [Compound T16] | 218 µM (≈ 100 µg/mL) | 109 µM (≈ 50 µg/mL) | 109 µM (≈ 50 µg/mL) | 3.94 | 45.8% | 49.1% | 53.9% | 59.1% | 199 to 202 °C | 41.30 µg/mL (≈ 89.8 µM) | 43.65% | 51.45% | 67.26% | 81.76% | 218 µM (≈ 100 µg/mL) | 218 µM (≈ 100 µg/mL) | 3.77 | – |
| CCCCCCCCCCCCCCCc1nnc(S)n1N=Cc1ccc([N+](=O)[O-])cc1 [Compound T17] | 218 µM (≈ 100 µg/mL) | 218 µM (≈ 100 µg/mL) | 54.3 µM (≈ 25 µg/mL) | 3.90 | 37.9% | 42.4% | 57.6% | 71.4% | 206 to 209 °C | – | 48.75% | 62.57% | 78.16% | 84.61% | 27.1 µM (≈ 12.5 µg/mL) | 109 µM (≈ 50 µg/mL) | < 3.66 | – |
